These results are taken from paper PMC5004831, “Molecular and biochemical characterization of carbonic anhydrases of Paracoccidioides” (Genetics and Molecular Biology, 2016).

Test [1] deals with T1, rCA4 (CA4), alpha-class carbonic anhydrase of Paracoccidioides (Paracoccidioides brasiliensis, UniProt B1PIT4).
T1 construct: 32 kDa
T1 sequence (B1PIT4 1-301): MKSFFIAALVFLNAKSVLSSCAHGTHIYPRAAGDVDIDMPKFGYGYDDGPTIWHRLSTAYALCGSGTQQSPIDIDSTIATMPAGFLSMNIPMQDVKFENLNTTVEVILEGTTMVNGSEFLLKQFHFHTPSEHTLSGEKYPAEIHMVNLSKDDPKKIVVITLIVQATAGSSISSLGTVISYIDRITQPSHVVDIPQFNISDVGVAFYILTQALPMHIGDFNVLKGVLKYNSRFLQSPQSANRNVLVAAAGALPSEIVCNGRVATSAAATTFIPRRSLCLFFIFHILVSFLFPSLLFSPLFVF
Kind of test: CO2 hydration, electrometric (Wilbur-Anderson). It is filed as biochemical. The following applies: read-out: CA4- Residual Activity (%). An excerpt:
CO2 hydration, electrometric (Wilbur-Anderson) on rCA4 (CA4), alpha-class carbonic anhydrase of Paracoccidioides

The target of test [2] is T2, rCA1 (CA1), beta-class carbonic anhydrase of Paracoccidioides (Paracoccidioides lutzii, UniProt C1H4M3).
T2 construct: gene PAAG_05716; complete cDNA, 282 residues, GST fusion (pGEX-4T-3) from E. coli, GST cut by thrombin; 33 kDa
T2 sequence (C1H4M3 1-282): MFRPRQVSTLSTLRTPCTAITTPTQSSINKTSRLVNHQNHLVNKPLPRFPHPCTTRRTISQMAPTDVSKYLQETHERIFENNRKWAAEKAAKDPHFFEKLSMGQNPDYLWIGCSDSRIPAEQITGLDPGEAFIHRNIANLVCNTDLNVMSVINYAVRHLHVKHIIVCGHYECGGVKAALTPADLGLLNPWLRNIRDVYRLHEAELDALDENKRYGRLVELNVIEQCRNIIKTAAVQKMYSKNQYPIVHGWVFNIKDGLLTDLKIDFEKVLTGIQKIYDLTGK
Kind of test: CO2 hydration, electrometric (Wilbur-Anderson). Format: biochemical. As to conditions: read-out: CA1- Residual Activity (%). An excerpt: CO2 hydration, electrometric (Wilbur-Anderson) on rCA1 (CA1), beta-class carbonic anhydrase of Paracoccidioides

In the case of `N=C(N)NCCC[C@H](N)C(=O)O` [L-Arg], the remaining activity at 25 µM was 132% in test [1] and 130% in test [2].
For `N[C@@H](Cc1cnc[nH]1)C(=O)O` [L-His], in that order: 152% and 142%.
For `NCCCC[C@H](N)C(=O)O` [L-Lys], in that order: 140% and 138%.
As to `N[C@@H](Cc1c[nH]c2ccccc12)C(=O)O` [L-Trp], the figures for the remaining activity at 25 µM in test [1] and in test [2] were 158% and 162%, respectively.
